Experimental data published in PMC5225203, “Multiparameter toxicity assessment of novel DOPO-derived organophosphorus flame retardants” (Archives of Toxicology, 2016).

Tests used:
[1] = test system: differentiated LUHMES cells; assay type: cell-based, human; settings: positive control
Experimental: Suppl. Fig. 10. Migration of mitochondria in neurites. Mitochondrial migration was detected in fully differentiated (day 6 of differentiation, DoD6) mixed LUHMES cultures consisting of 3% eGFP/mito-tRFP-overexpressing LUHMES in 97% unlabeled LUHMES in order to allow tracking of mitochondria in single neurites in an environment of normal LUHMES cell density (Schildknecht et al. 2013, ALTEX 30(4):427-444). Single cell time lapse imaging was performed for a period of 90 s in intervals of 3 s with a Zeiss LSM 780 inverted fluorescence microscope YOKOGAWA CSU-XI spinning disk system using an EVOLVE camera (Carl Zeiss Group, Oberkochen, Germany) equipped with a 5% CO2 /37°C controlled chamber and a 40 x 1.3 NA oil objective. For image analysis, kymographs (graphical representation of spatial position over time) based on the data obtained from single cell time lapse experiments were created using ImageJ Software (NIH, Bethesda, USA). The neurite was manually defined by the segmented line tool. To calculate mitochondrial velocity, diagonal lines were drawn for each moving mitochondrium in the kymograph and analysed by calculating the slope with the macro-plugin Kymo Line ROI, generated by Felix Schöneberger, Bioimaging Center (BIC), University of Konstanz, Germany.
(1 picture or pasted object on this page, not shown here)

[2] = test system: ARE-dependent luciferase expression in KeratinoSens cells; assay: KeratinoSens skin sensitization assay; assay type: cell-based; settings: positive control
Experimental: Generation of the stable KeratinoSens™ cell line was previously described in detail (Emter et al. [2010]). KeratinoSens™ cells were maintained in DMEM containing glutamax (Gibco/Invitrogen), 9 % FCS, and 0.5 mg/mL G418. For the experiments, KeratinoSens™ cells were seeded onto 96-well plates at a density of 10,000 cells per well in 125 µL medium without G418. After 24 h, the medium was replaced with 200 µL DMEM containing 1 % FCS and the test compounds. After a 2-day incubation period at 37 °C in an atmosphere containing 5 % CO2, the cells were washed once with PBS and a resazurin reduction assay (PrestoBlue®) was carried out in order to compare the viability of the differently treated groups. Fluorescence intensity was measured at 550 nmex and 590 nmem. After another washing step with PBS, cell lysis was performed using 20 µL/well passive lysis buffer (Promega) for 20 min at room temperature. Luciferase activity was measured by applying 50 µL luciferase substrate automatically to each well and detecting the resulting luminescence. Compounds were considered as skin sensitizers when a statistically significant induction of luciferase activity above a defined threshold of ≥1.5 in the absence of impaired cell viability was observed (Emter et al. [2010]; Natsch et al. [2011]).

[3] = test system: 3D epidermal in vitro model generated from primary human keratinocytes; assay: 3D epidermal in vitro model; assay type: cell-based; settings: positive control, 5 %, 15 min
Experimental: Human primary keratinocytes (PR3D-HPEK-50, CELLnTEC, Switzerland) were grown in flasks in proliferation medium (CNT-PR, CELLnTEC) until subconfluency was reached, after which the cells were seeded into transwell inserts containing polycarbonate membranes with a pore size of 0.4 µm at a density of 3.3 × 10^5 cells/cm^2 and grown for 3 days in CNT-PR until confluency was reached. Differentiation was initiated by the addition of 3D barrier medium (CNT-PR-3D, CELLnTEC) for 18 h to allow development of cell-to-cell adhesion structures. 3D growth and differentiation were induced by complete removal of medium from the upper transwell compartment and replacement of the CNT-PR-3D differentiation medium in the lower compartment. Cells were allowed to differentiate for 11 days with 3 medium changes per week in the lower compartment and direct cell-to-air contact in the top compartment. Flame retardants were suspended at a concentration of 200 mM in PBS containing 5 % DMSO, after which 100 µL of each test compound was applied on top of the epithelial barrier model. […] Cell viability of the epidermal models was assessed by measuring the reduction of resazurin to resorufin (PrestoBlue® Assay). Cell viability values (fluorescence signals) were normalized to the epidermal model thickness. […] Samples were mounted with DPX mounting medium (Sigma-Aldrich) and analyzed by microscopy (Olympus IX 81).

Structure (SMILES): C[n+]1ccc(-c2ccccc2)cc1 [MPP^+, reference compound]
- velocity of mitochondrial migration in neurites [1]: significant decline

Structure (SMILES): CC(=O)C=Cc1ccccc1 [benzylidene acetone, reference compound]
- concentration at which luciferase increase is associated with cell death [2]: > 10 µM

Structure (SMILES): CCCCCCCCCCCCOS(=O)(=O)[O-].[Na+] [SDS, sodium dodecyl sulfate]
- influence on the architecture of the epidermis [3]: complete disintegration of the stratum corneum and substantial cell death in the stratum spinosum
